For one data set, the system named is Candida albicans. The data set can be described thus: Antimicrobial activity against Candida albicans ATCC 10231 incubated for 16 hrs by microplate reader method. The format is functional, organism-based. To be noted: ATCC 10231, 16 h.
The test system of a further data set is NCI-H460. Nature of the data set: Cytotoxicity against human NCI-H460 cells incubated for 48 hrs by MTT assay. The format is functional, cell-based. The settings on record: NCI-H460, 48 h. A general note: Formazan colour is commonly taken as a measure of viable cells.
The next data set has as its system SW620/AD300. Nature of the data set: Cytotoxicity against human SW620/AD300 cells incubated for 48 hrs by MTT assay. The format is functional, cell-based. To be noted: SW620/AD300, 48 h.
The target of data set [1] is ATP-dependent translocase ABCB1 (Homo sapiens, UniProt P08183). The data set can be described thus: Reversal of P-glycoprotein mediated doxorubicin resistance in human SW620/AD300 cells overexpressing P-gp assessed as gain in sensitivity against doxorubicin at 2.5 uM incubated for 52 hrs by MTT assay. The format is cell-based. The settings on record: sw620/ad300, 52 h.

Each structure is given as a SMILES string.

ATP-dependent translocase ABCB1, sequence (P08183 whole entry): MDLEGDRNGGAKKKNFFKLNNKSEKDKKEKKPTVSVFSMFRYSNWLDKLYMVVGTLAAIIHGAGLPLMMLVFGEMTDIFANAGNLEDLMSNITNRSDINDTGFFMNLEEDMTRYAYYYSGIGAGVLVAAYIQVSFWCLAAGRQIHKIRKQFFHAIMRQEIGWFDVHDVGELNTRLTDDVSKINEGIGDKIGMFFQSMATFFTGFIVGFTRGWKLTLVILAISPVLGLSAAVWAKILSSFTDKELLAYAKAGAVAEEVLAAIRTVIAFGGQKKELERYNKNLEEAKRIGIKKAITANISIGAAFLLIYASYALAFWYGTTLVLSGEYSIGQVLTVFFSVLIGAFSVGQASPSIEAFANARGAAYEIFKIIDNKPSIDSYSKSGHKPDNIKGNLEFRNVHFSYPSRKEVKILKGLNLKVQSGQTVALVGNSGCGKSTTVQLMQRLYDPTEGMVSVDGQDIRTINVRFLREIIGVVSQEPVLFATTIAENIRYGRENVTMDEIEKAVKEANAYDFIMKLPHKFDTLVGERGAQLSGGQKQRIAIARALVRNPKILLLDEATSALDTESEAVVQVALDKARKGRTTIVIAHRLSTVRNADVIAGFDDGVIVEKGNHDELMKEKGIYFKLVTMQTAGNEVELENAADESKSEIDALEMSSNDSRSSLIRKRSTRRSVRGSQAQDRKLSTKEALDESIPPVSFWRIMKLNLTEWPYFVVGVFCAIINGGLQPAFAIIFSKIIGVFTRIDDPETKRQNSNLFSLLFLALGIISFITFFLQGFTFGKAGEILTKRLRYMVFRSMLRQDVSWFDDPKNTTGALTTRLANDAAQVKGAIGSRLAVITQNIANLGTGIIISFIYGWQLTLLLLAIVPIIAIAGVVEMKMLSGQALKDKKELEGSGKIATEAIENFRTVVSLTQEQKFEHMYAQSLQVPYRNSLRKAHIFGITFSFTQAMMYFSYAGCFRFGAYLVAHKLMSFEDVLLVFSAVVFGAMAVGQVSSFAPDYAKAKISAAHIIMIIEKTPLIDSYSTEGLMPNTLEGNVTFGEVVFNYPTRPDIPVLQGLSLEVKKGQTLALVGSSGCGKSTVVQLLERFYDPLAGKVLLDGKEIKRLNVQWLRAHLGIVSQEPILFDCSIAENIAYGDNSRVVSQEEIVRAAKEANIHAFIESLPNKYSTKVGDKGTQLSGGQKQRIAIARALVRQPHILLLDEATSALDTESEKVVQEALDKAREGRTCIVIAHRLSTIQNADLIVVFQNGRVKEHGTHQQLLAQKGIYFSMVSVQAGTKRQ

In general, IC50 refers to the point on the concentration scale where inhibition reaches its midpoint. A higher IC50 goes with weaker potency. Regarding `C[C@H]1O[C@]2(C)CC(=O)O[C@]2(C)c2c1c(O)c1c3c(c4n(c23)[C@@H]([C@@H](C)O)CC4)C=CC1=O`, the IC50 with Candida albicans, with NCI-H460 and with SW620/AD300 was greater than 30 µM each time.
With `C[C@H]1Oc2c(O)c3c4c(c5n(c4c2C[C@H](CC(=O)O)O1)[C@H]([C@@H](C)O)CC5)C=CC3=O`, the IC50 with Candida albicans, with NCI-H460 and with SW620/AD300 was greater than 30 µM in each case.
As to `C[C@@H](O)[C@@H]1CCc2c3c4c(c(O)c(O)c(C[C@@H](O)CC(=O)O)c4n21)C(=O)C=C3`, the IC50 in the data set on Candida albicans, in the data set with NCI-H460 and in the data set with SW620/AD300 was greater than 30 µM in each case.
`C[C@@H]1O[C@@H](CC(=O)O)C(=O)c2c1c(O)c1c3c(c4n(c23)[C@H]([C@@H](C)O)CC4)C=CC1=O`: the IC50 in the data set on Candida albicans, with NCI-H460 and in the data set on SW620/AD300 was greater than 30 µM each time. In addition, the Activity in data set [1] was determined as 45%.
Regarding `C[C@@H]1OC(CC(=O)O)=Cc2c1c(O)c1c3c(c4n(c23)[C@H]([C@@H](C)O)CC4)C=CC1=O`, the 50% inhibitory concentration (IC50) in the data set with Candida albicans, in the data set with NCI-H460 and in the data set on SW620/AD300 was greater than 30 µM throughout. In addition, the Activity in data set [1] was 45%.
With `COC(=O)C[C@H]1Cc2c(c(O)c3c4c(c5n(c24)[C@H]([C@@H](C)O)CC5)C=CC3=O)[C@H](C)O1`, the IC50 in the data set with Candida albicans, with NCI-H460 and in the data set with SW620/AD300 was greater than 30 µM in each case. In addition, the Activity in data set [1] is 45%.
Turning to `C[C@H]1O[C@H](CC(=O)O)Cc2c1c(O)c1c3c(c4n(c23)[C@@H]([C@@H](C)O)CC4)C=CC1=O`, the half-maximal inhibitory concentration (IC50) with Candida albicans, in the data set with NCI-H460 and in the data set with SW620/AD300 was greater than 30 µM in each case. Also, the Activity in data set [1] is 45%.
Consider `C[C@H]1OC(CC(=O)O)=Cc2c1c(O)c1c3c(c4n(c23)[C@H]([C@@H](C)O)CC4)C=CC1=O`, for which the half-inhibitory concentration (IC50) in the data set on Candida albicans, in the data set on NCI-H460 and in the data set on SW620/AD300 was greater than 30 µM in each case. Besides, the Activity in data set [1] stood at 45%.

The values above are taken from ChEMBL document CHEMBL5131460, “Glenthenamines A-F: Enamine Pyranonaphthoquinones from the Australian Pasture Plant Derived Streptomyces sp. CMB-PB042” (J Nat Prod, 2022).
